Patent US8735414B2 (priority 2009, dated 2014)

Experiments:
[1] = system: bicistronic HCV replicon (replicon RNA, GenBank Accession No. AJ242654); test: HCV Replicon Assay; type: cell-based; conditions: Hepatitis C virus, 72 h, read-out: Replicon IC50

SMILES	melting point [°C]	IC50 [1] [nM]
Cc1cc(-c2c(C#N)c3cc(F)ccc3n2-c2ccccn2)ncc1S(=O)(=O)N[C@@H](C)C(F)(F)F [compound 847, 6-[3-cyano-5-fluoro-1-(pyridin-2-yl)-1H-indol-2-yl]-4-methyl-N-[(2S)-1,1,1-trifluoropropan-2-yl]pyridine-3-sulfonamide]	180 to 186	< 500
Cc1cc2c(cc1Cl)c(C#N)c(-c1ccc(S(=O)(=O)N[C@@H](C)C(F)(F)F)cn1)n2-c1ccc(F)cn1 [compound 804, 6-[5-chloro-3-cyano-1-(5-fluoropyridin-2-yl)-6-methyl-1H-indol-2-yl]-N-[(2S)-1,1,1-trifluoropropan-2-yl]pyridine-3-sulfonamide]	210 to 212	< 500
C[C@@H](NS(=O)(=O)c1ccc(-c2c(C#N)c3cc(F)ccc3n2C2C=CCCC2)nc1)C(F)(F)F (stereo partly drawn) [compound 412, 6-[3-cyano-1-(cyclohex-2-en-1-yl)-5-fluoro-1H-indol-2-yl]-N-[(2R)-1,1,1-trifluoropropan-2-yl]pyridine-3-sulfonamide]	187 to 188	< 500
CCn1c(-c2ccc(N(CC(F)F)S(=O)(=O)C3CC3)nc2)c(C#N)c2ccc(OC(C)C)cc21 [compound 292, N-{5-[3-cyano-1-ethyl-6-(propan-2-yloxy)-1H-indol-2-yl]pyridin-2-yl}-N-(2,2-difluoroethyl)cyclopropanesulfonamide]	232 to 235	500 to 2000
Cc1ccc2c(c1)c(C#N)c(-c1ccc(S(=O)(=O)N[C@H](C)C(F)(F)F)cn1)n2C(C)C [compound 485, 6-[3-cyano-5-methyl-1-(propan-2-yl)-1H-indol-2-yl]-N-[(2R)-1,1,1-trifluoropropan-2-yl]pyridine-3-sulfonamide]	167 to 173	< 500
CC(C)NS(=O)(=O)c1ccc(-c2c(C#N)c3ccc(OC(F)F)cc3n2C2CC2)cn1 [compound 39, 5-[3-cyano-1-cyclopropyl-6-(difluoromethoxy)-1H-indol-2-yl]-N-(propan-2-yl)pyridine-2-sulfonamide]	209 to 210	2000 to 5000
Cc1ccc2c(C#N)c(-c3ccc(S(=O)(=O)N[C@@H](C)C(F)(F)F)cn3)n(C3CCCC3)c2c1F [compound 424, 6-(3-cyano-1-cyclopentyl-7-fluoro-6-methyl-1H-indol-2-yl)-N-[(2S)-1,1,1-trifluoropropan-2-yl]pyridine-3-sulfonamide]	191 to 195	< 500
CCc1ccc2c(c1)c(C#N)c(-c1ccc(S(=O)(=O)N[C@@H](C)C(F)(F)F)cn1)n2C1CCCC1 [compound 374, 6-(3-cyano-1-cyclopentyl-5-ethyl-1H-indol-2-yl)-N-[(2S)-1,1,1-trifluoropropan-2-yl]pyridine-3-sulfonamide]	159.5 to 160.5	< 500
Cc1cc(-n2c(-c3ccc(S(=O)(=O)N[C@@H](C)C(F)(F)F)cn3)c(C#N)c3cc(F)c(C)cc32)cs1 [compound 1058, 6-[3-cyano-5-fluoro-6-methyl-1-(5-methylthiophen-3-yl)-1H-indol-2-yl]-N-[(2S)-1,1,1-trifluoropropan-2-yl]pyridine-3-sulfonamide]	210.5 to 215.2	< 500
C[C@H](NS(=O)(=O)c1ccc(-c2c(C#N)c3ccc(F)cc3n2C2CCC2)nc1)C1CC1 [compound 144, 6-(3-cyano-1-cyclobutyl-6-fluoro-1H-indol-2-yl)-N-[(1S)-1-cyclopropylethyl]pyridine-3-sulfonamide]	136 to 138	< 500
C[C@@H](NS(=O)(=O)c1cnc(-c2c(C#N)c3ccc(OC(F)F)cc3n2C2CCC2)nc1)C(F)(F)F [compound 184, 2-[3-cyano-1-cyclobutyl-6-(difluoromethoxy)-1H-indol-2-yl]-N-[(2R)-1,1,1-trifluoropropan-2-yl]pyrimidine-5-sulfonamide]	112 to 114	< 500
C[C@H](NS(=O)(=O)c1ccc(-c2cc3cc(F)c(O)cc3n2C2CCC2)nc1)C(F)(F)F [compound 728, 6-(1-cyclobutyl-5-fluoro-6-hydroxy-1H-indol-2-yl)-N-[(2S)-1,1,1-trifluoropropan-2-yl]pyridine-3-sulfonamide]	193 to 195	2000 to 5000
CNC(=O)c1c(-c2ccc(S(=O)(=O)NC(C)(C)C)cn2)n(C2CCCC2)c2cc(C)c(F)cc12 [compound 799, 2-[5-(tert-butylsulfamoyl)pyridin-2-yl]-1-cyclopentyl-5-fluoro-N,6-dimethyl-1H-indole-3-carboxamide]	248 to 250	< 500
CCc1cc2c(cc1F)c(C#N)c(-c1cc(C)c(S(=O)(=O)N[C@H](C)C(F)(F)F)cn1)n2-c1ccccn1 [compound 891, 6-[3-cyano-6-ethyl-5-fluoro-1-(pyridin-2-yl)-1H-indol-2-yl]-4-methyl-N-[(2R)-1,1,1-trifluoropropan-2-yl]pyridine-3-sulfonamide]	178 to 183	< 500
C[C@H](NS(=O)(=O)c1ccc(-c2c(C#N)c3ccc(C#N)cc3n2CC2CC2)nc1)C(F)(F)F [compound 349, 6-[3,6-dicyano-1-(cyclopropylmethyl)-1H-indol-2-yl]-N-[(2S)-1,1,1-trifluoropropan-2-yl]pyridine-3-sulfonamide]	187 to 188	500 to 2000
Cc1cc2c(cc1F)c(C#N)c(-c1ccc(S(=O)(=O)N[C@@H](C)C(F)(F)F)cn1)n2-c1ncc(CO)s1 [compound 984, 6-{3-cyano-5-fluoro-1-[5-(hydroxymethyl)-1,3-thiazol-2-yl]-6-methyl-1H-indol-2-yl}-N-[(2S)-1,1,1-trifluoropropan-2-yl]pyridine-3-sulfonamide]	180 to 185	< 500
Cc1c(F)cc2c(C#N)c(-c3ccc(S(=O)(=O)NC4(C(F)(F)F)CC4)cn3)n(C3CCCC3)c2c1F [compound 654, 6-(3-cyano-1-cyclopentyl-5,7-difluoro-6-methyl-1H-indol-2-yl)-N-[1-(trifluoromethyl)cyclopropyl]pyridine-3-sulfonamide]	241 to 246	< 500
CC(NS(=O)(=O)c1cnc(-c2c(C#N)c3ccc(OC(F)F)cc3n2C2CCC2)nc1)C(F)(F)F (stereo not shown) [compound 128, 2-[3-cyano-1-cyclobutyl-6-(difluoromethoxy)-1H-indol-2-yl]-N-(1,1,1-trifluoropropan-2-yl)pyrimidine-5-sulfonamide]	227 to 229	< 500
CC(C)NS(=O)(=O)c1cnc(-c2c(C#N)c3cc(F)ccc3n2C2CCC2)nc1 [compound 416, 2-(3-cyano-1-cyclobutyl-5-fluoro-1H-indol-2-yl)-N-(propan-2-yl)pyrimidine-5-sulfonamide]	195 to 200	< 500
Cc1c(F)cc2c(C#N)c(-c3ccc(S(=O)(=O)NC(CF)CF)cn3)n(C3CCCC3)c2c1F [compound 509, 6-(3-cyano-1-cyclopentyl-5,7-difluoro-6-methyl-1H-indol-2-yl)-N-(1,3-difluoropropan-2-yl)pyridine-3-sulfonamide]	199 to 203	< 500
